Experimental findings from ChEMBL document CHEMBL1201862, “PubChem BioAssay data set” (2004) are described below.

What all share (assay): DTP human tumour cell line panel, 48 h
The subject of assay [1] is DMS-114.
In assay [2] the test system is DMS-273.
Assay [3] has as its system KM-20L2.
Assay [4] deals with RXF 631.
Assay [5] relates to XF498.
Assay [6] deals with Hs-578T.
In assay [7] the test system is MDA-N.
Assay [8] deals with T47D.
Assay [9] concerns HOP-18.

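Cells were grown in 96-well plates and exposed to each compound for 48 hours at five concentrations; endpoints were interpolated linearly between bracketing concentrations, or set to the highest concentration if not reached. Abbreviation: GI50, concentration required for 50% inhibition of growth.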 The source made the active and inactive calls. Rule as the data show it: active = GI50 up to about 1.1 µM and inactive = higher.

Take `[O-][n+]1c(-c2ccccc2)c2nc3ccccc3nc2c2ccccc21`: the GI50 in [1], in assay [2], in [3], in assay [4] and in assay [5] was > 100 µM (inactive) in each case.
Consider `COC1=C(N=[N+]=[N-])C(=O)c2ncccc2C1=O`, for which the GI50 (usually the concentration giving 50% growth inhibition) was 6.85 µM (inactive) in assay [1]; 12.9 µM (inactive) in assay [2]; 18.5 µM (inactive) in assay [6]; 18.5 µM (inactive) in assay [3]; 1.95 µM (inactive) in assay [7]; 16.3 µM (inactive) in [4]. Further, the GI50 in [8] was 2.13 µM (inactive); in assay [5] it was 4.74 µM (inactive).
Turning to `Nc1ncnc2c1N=CN(Oc1ccccc1)N2`, the GI50 in assay [1], in assay [2], in assay [3], in assay [4] and in [5] was > 100 µM (inactive) in each case.
Consider `CCCN1CN(C(C(=O)N[C@@H]2C(=O)N3C2SC(C)(C)C3C(=O)O)c2ccc(O)cc2)CSC1=S` (stereo not given in full), for which the GI50 is 19.1 µM (inactive) in [1]; > 100 µM (inactive) in [2]; > 100 µM (inactive) in assay [9]; > 100 µM (inactive) in assay [3]; > 100 µM (inactive) in assay [5].
Consider `COc1ccc2c(c1)CC[C@@H]1C2CC[C@]2(C)C(=N\O)/C(=N/O)CC12` (stereo not given in full), for which the GI50 in assay [2] is 12 µM (inactive); in [9], 15.7 µM (inactive); in assay [3], 6.21 µM (inactive); in assay [5] it was 14.5 µM (inactive).
Consider `O=C1/C(=C/c2ccccc2)CN(C(=O)OCC(Cl)(Cl)Cl)C/C1=C\c1ccccc1`, for which the GI50 in [1] is 1.95 µM (inactive); in [2] it was 1.5 µM (inactive); in assay [9] it was 3.57 µM (inactive); in assay [3], 2.44 µM (inactive).
With `C/C(=N\NS(=O)(=O)c1ccccc1)c1ccc(Cl)c(Cl)c1`, the GI50 in [1] was 39.2 µM (inactive); in assay [2], 85.3 µM (inactive); in assay [9] it was 49.8 µM (inactive); in assay [3] it was 72.8 µM (inactive); in assay [5], > 100 µM (inactive).
As for `CCOC(=O)NC(=O)c1cn(C2OC(CO)C(O)C2O)c(=O)[nH]c1=O` (stereo not given), the GI50 in assay [1], in [2], in assay [3] and in [4] was > 100 µM (inactive) each time.
Take `O=C1CCCC/C1=C1\C(=O)Nc2cc(F)ccc21`: the GI50 in [1], in assay [2], in assay [9], in [3] and in assay [5] was > 100 µM (inactive) each time.
As for `COc1ccc2cc3nc(O)cc(O)c3cc2c1OC`, the GI50 in assay [1], in [9], in assay [3], in assay [4] and in assay [5] was > 100 µM (inactive) in each case.
Turning to `COc1ccc(C2=NNC(=O)OC2c2ccccc2)cc1` (stereo not given), the GI50 in assay [1] was 71.8 µM (inactive); in assay [9] it was 57.9 µM (inactive); in [3], 41.2 µM (inactive); in assay [4], > 100 µM (inactive); in assay [5], 74 µM (inactive).
For the compound `O=S(=O)(O)c1cc(/N=N/c2cc(S(=O)(=O)O)c3ccccc3c2O)ccc1/C=C/c1ccc(/N=N/c2cc(S(=O)(=O)O)c3ccccc3c2O)cc1S(=O)(=O)O`, the GI50 in assay [1] is > 100 µM (inactive); in assay [2], > 83 µM (inactive); in assay [9] it was > 100 µM (inactive); in assay [6], 499 µM (inactive); in assay [3], > 100 µM (inactive); in assay [7] it was 151 µM (inactive). Further, the GI50 in [8] is 497 µM (inactive); in assay [5] it was > 100 µM (inactive).
Regarding `CCOC(=O)c1cn2c([nH]c3ccccc32)c(C#N)c1=O`, the GI50 in assay [2], in assay [9], in [3], in [4] and in assay [5] was > 100 µM (inactive) in each case.
Regarding `CNS(=O)(=O)NN(C)S(=O)(=O)c1ccc2ccccc2c1`, the GI50 in [1], in assay [2], in assay [3] and in [4] was > 100 µM (inactive) throughout.
In the case of `O=C1C(Nc2ccc(S(=O)(=O)Nc3cnc4ccccc4n3)cc2)=C/C(=N\c2ccc(S(=O)(=O)Nc3cnc4ccccc4n3)cc2)c2ccccc21`, the GI50 in assay [1] is 21.2 µM (inactive); in [2] it was 12 µM (inactive); in assay [9], 13.7 µM (inactive); in assay [6], 37.2 µM (inactive); in [3], 17.7 µM (inactive); in assay [7], 18.8 µM (inactive). In assay [5], the GI50 is 25.5 µM (inactive).
With `Clc1ccccc1C1=NN(c2ccccc2)C2c3cc(Br)ccc3OCC12` (stereo not given), the GI50 in assay [1], in assay [2], in assay [9], in assay [3] and in [5] was > 100 µM (inactive) throughout.
As to `O=CC(NC(=O)N(CCCl)N=O)C(O)C(O)C(O)CO` (stereo not given), the GI50 was 1040 µM (inactive) in assay [1]; 1000 µM (inactive) in assay [2]; > 1250 µM (inactive) in assay [9]; > 955 µM (inactive) in assay [6]; > 1250 µM (inactive) in assay [3]; 312 µM (inactive) in [7]. Moreover, in assay [8], the GI50 is 679 µM (inactive).
On to `O=C(CC(=O)C1CCOC1=O)C(=O)Nc1ccc(Cl)cc1` (stereo not given), for which the GI50 in assay [1], in assay [2], in [3] and in assay [4] was > 100 µM (inactive) each time.
Turning to `O=C(O)c1ccc(O)c(/N=N/c2cc(S(=O)(=O)O)c3ccccc3c2O)c1`, the GI50 in [1] is 82.6 µM (inactive); in assay [2], > 100 µM (inactive); in assay [3] it was > 100 µM (inactive); in assay [4] it was > 100 µM (inactive).
As for `Nc1ccc(C(=O)/C=C/c2ccccc2O)cc1`, the GI50 in assay [2] is > 10 µM (inactive); in [3] it was > 100 µM (inactive); in assay [4], > 100 µM (inactive); in [5] it was > 100 µM (inactive).
Take `CC(CC(=O)Nc1ccc(NC(=O)CC(C)/N=N\C(N)=O)cc1)/N=N\C(N)=O` (stereo not given): the GI50 in [1] was 15.6 µM (inactive); in assay [2] it was 41.6 µM (inactive); in [9] it was > 100 µM (inactive); in [3] it was > 100 µM (inactive); in [5], > 100 µM (inactive).
In the case of `C/C(CC(=O)Nc1ccc(C)c(C)c1)=N\NC(N)=S`, the GI50 in assay [1], in assay [2], in assay [3] and in [4] was > 100 µM (inactive) in each case.
For `CCCSS[C@H]1NC(=O)[C@H]1NC(=O)COc1ccccc1`, the GI50 in assay [1] is 19 µM (inactive); in assay [2] it was 17.4 µM (inactive); in assay [9], 28 µM (inactive); in [3], 20.9 µM (inactive); in [4], 17.5 µM (inactive); in assay [5], 17.8 µM (inactive).
Consider `C=C(C(=C)N1N=NC2C3CCC(C3)C21)N1N=NC2C3CCC(C3)C21` (stereo not given), for which the GI50 in assay [1], in assay [2], in [9], in assay [4] and in assay [5] was > 100 µM (inactive) in each case.
As to `COc1ccccc1C(=O)N(Cc1ccccc1)c1ccc(Cl)c(C(=O)OC(C)C)c1`, the GI50 is 12.6 µM (inactive) in assay [1]; 5.98 µM (inactive) in assay [2]; 14 µM (inactive) in assay [9]; 61.1 µM (inactive) in [6]; 30.3 µM (inactive) in [3]; 38.2 µM (inactive) in assay [7]. The GI50 in [4] was 17 µM (inactive); in [8] it was 5.52 µM (inactive); in assay [5] it was 14.2 µM (inactive).
Turning to `Fc1ccc2c(c1)SC1Oc3ccccc3-c3c1c-2nn3-c1ccccc1` (stereo not given), the GI50 in [1] is > 100 µM (inactive); in [2] it was > 100 µM (inactive); in assay [9] it was 27 µM (inactive); in assay [3], > 100 µM (inactive); in assay [4], 7.69 µM (inactive); in assay [5], > 100 µM (inactive).
With `COc1c(Sc2ccccc2)cc(Sc2ccccc2)c2cccnc12`, the GI50 was 24.1 µM (inactive) in assay [1]; 20 µM (inactive) in [2]; 0.0263 µM (active) in assay [9]; 21.2 µM (inactive) in assay [3]; 27.9 µM (inactive) in [4]; 17.7 µM (inactive) in assay [5].
As to `COc1ccc(CN2CC(C)(C)C2=O)c(OC)c1`, the GI50 in assay [1], in [2], in assay [9], in [3], in assay [4] and in assay [5] was > 100 µM (inactive) each time.
